Reference: the supplement of paper PMC10307832

Columns and labels:
Experiment in all cases: relative viability (nuclei count vs DMSO), 5 days (fraction); higher = more cells survive
[1] = compound: CN(NC(=O)CC(=O)NN(C)C(=S)c1ccccc1)C(=S)c1ccccc1 [Elesclomol] + CC1(C)CCC(c2ccc(Cl)cc2)=C(CN2CCN(c3ccc(C(=O)NS(=O)(=O)c4ccc(N[C@H](CCN5CCOCC5)CSc5ccccc5)c(S(=O)(=O)C(F)(F)F)c4)cc3)CC2)C1 [Navitoclax] (partner 0.5 µM)
In short: (§1)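 Lung cancer cell lines were seeded in 1536-well plates and dosed by pin tool the next day, with either a single drug or a fixed anchor-drug dose combined with five library-drug doses (not always all listed) spaced in √10 steps. Five days later, one step fixed the cells and stained their nuclei (final 0.05% Triton X-100, 1% formaldehyde, 1 ug/ml Hoechst), and nuclei were counted on 4× images. Relative viability is the nuclei count in treated wells divided by the count in vehicle wells, and each value is the median of duplicate plates.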

[2] = compound: CN(NC(=O)CC(=O)NN(C)C(=S)c1ccccc1)C(=S)c1ccccc1 [Elesclomol] + COc1cc2c(Oc3ccc(NC(=O)C4(C(=O)Nc5ccc(F)cc5)CC4)cc3F)ccnc2cc1OCCCN1CCOCC1 [Foretinib] (partner 0.25 µM)
In short: as §1

[3] = compound: CN(NC(=O)CC(=O)NN(C)C(=S)c1ccccc1)C(=S)c1ccccc1 [Elesclomol] + COc1cccc2cc(-c3nc([C@H]4CC[C@H](C(=O)O)CC4)n4ncnc(N)c34)[nH]c12 [OSI-027] (partner 0.5 µM)
In short: as §1

[4] = compound: CN(NC(=O)CC(=O)NN(C)C(=S)c1ccccc1)C(=S)c1ccccc1 [Elesclomol] + Cc1cc(Nc2cc(N3CCN(C)CC3)nc(Sc3ccc(NC(=O)C4CC4)cc3)n2)n[nH]1 [Tozasertib] (partner 0.1 µM)
In short: as §1

[5] = compound: CN(NC(=O)CC(=O)NN(C)C(=S)c1ccccc1)C(=S)c1ccccc1 [Elesclomol] + Nc1nc2[nH]cc(CCc3ccc(C(=O)N[C@@H](CCC(=O)O)C(=O)O)cc3)c2c(=O)[nH]1 [Pemetrexed] (partner 0.2 µM)
In short: as §1

| Cell Line | relative viability ([1]; first compound 0.003162 µM) | relative viability ([1]; first compound 0.01 µM) | relative viability ([1]; first compound 0.03162 µM) | relative viability ([1]; first compound 0.1 µM) | relative viability ([2]; first compound 0.003162 µM) | relative viability ([2]; first compound 0.01 µM) | relative viability ([2]; first compound 0.03162 µM) | relative viability ([2]; first compound 0.1 µM) | relative viability ([3]; first compound 0.003162 µM) | relative viability ([3]; first compound 0.01 µM) | relative viability ([3]; first compound 0.03162 µM) | relative viability ([3]; first compound 0.1 µM) | relative viability ([4]; first compound 0.003162 µM) | relative viability ([4]; first compound 0.01 µM) | relative viability ([4]; first compound 0.03162 µM) | relative viability ([4]; first compound 0.1 µM) | relative viability ([5]; first compound 0.003162 µM) | relative viability ([5]; first compound 0.01 µM) | relative viability ([5]; first compound 0.03162 µM) | relative viability ([5]; first compound 0.1 µM) |
| --- | --- | --- | --- | --- | --- | --- | --- | --- | --- | --- | --- | --- | --- | --- | --- | --- | --- | --- | --- | --- |
| EKVX | 0.875 | 0.658 | 0.289 | 0.205 | 0.779 | 0.736 | 0.398 | 0.189 | 0.767 | 0.457 | 0.329 | 0.185 | 0.343 | 0.281 | 0.199 | 0.141 | 0.366 | 0.33 | 0.151 | 0.131 |
| EMC-BAC-2 | 1.2 | 1.06 | 1.06 | 0.604 | 1.1 | 0.877 | 0.784 | 0.392 | 0.408 | 0.225 | 0.352 | 0.176 | 0.307 | 0.265 | 0.275 | 0.213 | 0.486 | 0.399 | 0.525 | 0.426 |
| EPLC-272H | 1.1 |  | 1.03 | 0.164 | 0.67 |  | 0.672 | 0.0988 | 0.295 |  | 0.304 | 0.138 | 0.223 |  | 0.331 | 0.101 | 0.285 | 0.118 | 0.154 | 0.196 |
| H3255 | 0.629 | 0.457 | 0.171 | 0.128 | 0.765 | 0.884 | 0.57 | 0.398 | 0.538 | 0.537 | 0.489 | 0.421 | 0.569 | 0.525 | 0.405 | 0.364 | 0.627 | 0.531 | 0.489 | 0.474 |
| HARA | 1.16 | 1.17 | 0.884 | 0.267 | 0.875 | 0.878 | 0.691 | 0.238 | 0.524 | 0.211 | 0.31 | 0.0896 | 0.155 | 0.108 | 0.0878 | 0.0669 | 0.211 | 0.293 | 0.183 | 0.141 |
| HCC-15 | 0.73 | 0.656 | 0.439 | 0.373 | 0.946 | 0.857 | 0.355 | 0.171 | 0.727 | 0.412 | 0.276 | 0.0961 | 0.358 | 0.292 | 0.204 | 0.159 | 0.237 | 0.23 | 0.24 | 0.187 |
| HCC-44 | 0.941 | 0.993 | 0.987 | 0.538 |  |  |  |  | 0.636 | 0.198 | 0.351 | 0.11 | 0.897 | 0.794 | 0.17 | 0.194 | 0.603 | 0.607 | 0.685 | 0.639 |
| HCC-78 | 0.778 | 0.755 | 0.793 | 0.627 | 0.516 | 0.574 | 0.548 | 0.583 | 0.356 | 0.399 | 0.364 | 0.322 | 0.378 | 0.426 | 0.399 | 0.483 | 0.901 | 0.856 | 0.911 | 0.956 |
